The source of these data is patent publication US20150164910A1, “ANTIVIRAL COMPOUNDS AND METHODS OF USE” (The Regents of the University of Califonia, priority 2012, published 2015).

The subject of one series is HeLa-RW cells. In kind it is cell-based. Particulars: in words. Here is the method:
(§1) Procedure: Enteroviruses rapidly cause cell death, and a cell viability assay was used to examine the cytotoxicity of each compound and to identify the concentration needed to prevent cell death caused by coxsackievirus B3 (CVB3) infection.
(§2) Compounds were diluted two-fold and added to wells of 384 well plate. HeLa-RW cells were then added (cytotoxicity testing), or cells and CVB3 were added to provide a low multiplicity of infection to determine concentration of peak activity or 50% maximal concentration. Selectivity index is defined as the 50% Cytotoxic concentration/50% activity concentration

Another series deals with CVB3. The series is described as follows: Time of addition experiment, CVB3 in HeLa cells. In kind it is cell-based, coxsackievirus B3.
The subject of a further series is CVB3-H3. Description: Plaque reduction assay, CVB3-H3 in HeLa-RW cells. In kind it is cell-based, coxsackievirus B3. Particulars: compound added 30 min before infection, CVB3-H3 MOI 1, HeLa-RW, 6 hours; log10(titer with DMSO only/titer with inhibitor). For orientation: Plaques are areas of infected cells; plaque reduction assays count them against a control.
Series [1] concerns coxsackievirus B3 (CVB3). Description: Cell viability assay, prevention of cell death caused by CVB3 infection. In kind it is cell-based. As to conditions: for Selectivity index: 50% Cytotoxic concentration/50% activity concentration; for IC50 / EC (peak activity): Enterovirus B; for IC50: read-out: 50% activity concentration (IC50); for EC (peak activity): HeLa-RW cells and CVB3 at low multiplicity of infection, read-out: Peak Activity Conc. Here is the method: as §1, §2

The subject of series [2] is eGFP-expressing recombinant CVB3. In kind it is cell-based, coxsackievirus B3. As to conditions: for % of eGFP + cells, 0 Hr: compound added 0 hr post infection at its peak activity concentration, DMSO 26.0; for % of eGFP + cells, 0 Hr / % of eGFP + cells, 1 Hr / % of eGFP + cells, 2 Hr: read 6 hr post infection; for % of eGFP + cells, 1 Hr: compound added 1 hr post infection at its peak activity concentration, DMSO 23.7; for % of eGFP + cells, 2 Hr: compound added 2 hr post infection at its peak activity concentration, DMSO 24.8; for Inhibition of infected cells: eGFP-CVB3 m.o.i=1, compound added at time of infection, 6 hr post infection, 1-(% eGFP+ cells with compound/% with DMSO only).

The subject of series [3] is coxsackievirus B3 (CVB3). The series is described as follows: Cell viability assay, prevention of cell death caused by CVB3 infection. In kind it is cell-based. Particulars: Enterovirus B, HeLa, read-out: 50% effective concentration (EC50), CVB3 replication.
Another series deals with poliovirus 1 (PV-1). In kind it is cell-based. On the set-up: dose or concentration left out as unconfirmed. Particulars: HeLa cells, MOI of 1, six hours (FIG. 6).
The next series has as its system poliovirus-3 (PV-3). In kind it is cell-based. On the set-up: dose or concentration left out as unconfirmed. As to conditions: HeLa cells, MOI of 1, six hours (FIG. 6).
The test system of series [4] is viral capsid proteins of CVB3. The series is described as follows: Immunoblot detection of CVB3 viral capsid protein. In kind it is cell-based, coxsackievirus B3. As to conditions: six hours after infection with CVB3; compound added 30 minutes before inoculation; 10 μM fluoxetine in FIG. 2.

With `COc1ccc(C(=O)N2CCC(C(=O)c3ccc4c(c3)OCCO4)CC2)cc1F` [Compound 45, 2,3-Dihydro-1,4-benzodioxin-6-yl [1-(3-fluoro-4-methoxybenzoyl)-4-piperidinyl] methanone], in the series on HeLa-RW cells, the “cytotoxicity to HeLa cells” value is “minimally cytotoxic”. In addition, the “CVB3 replication, compound added 1 hour or more after inoculation” value with CVB3 (added 1 hour or more after inoculation (FIG. 7)) is given as “less potent”. Further, the “CVB3 replication, compound added prior to inoculation” value in the series with CVB3 (added prior to inoculation of cultures (FIG. 7)) is listed as “markedly reduced”. Also, the “Log10 reduction of virus titer” value in the series on CVB3-H3 came out at 2.0. In the series on coxsackievirus B3 (CVB3) [1], the Selectivity index stood at 125, the IC50 came out at 0.2 µM and the EC (peak activity) was found to be 1.56 µM. For the same molecule, in series [2], the “% of eGFP + cells, 0 Hr” value was found to be 8.9%; the “% of eGFP + cells, 1 Hr” value turned out to be 17.0%; the “% of eGFP + cells, 2 Hr” value turned out to be 20.0%; the “Inhibition of infected cells” value turned out to be 82.1%. Besides, the EC50 with coxsackievirus B3 (CVB3) [3] was 0.2 µM.
Take `CC(C)n1ncc2c(C(=O)Nc3ccccc3F)cc(-c3cccs3)nc21` [Compound 3, N-(2-Fluorophenyl)-1-isopropyl-6-(2-thienyl)-1H-pyrazolo [3,4-b]pyridine-4-carboxamide]: the “titer of virus produced, PV-1” value with poliovirus 1 (PV-1) is on record as “marked reduction”. For the same molecule, the “activity when added 2 hours after infection begins” value in the series with CVB3 (virus produced six hours after infection (FIG. 7)) is “equivalently active”. The “titer of virus produced, PV-3” value in the series on poliovirus-3 (PV-3) is “marked reduction”. The “Log10 reduction of virus titer” value in the series with CVB3-H3 is 4.5. Besides, in the series with coxsackievirus B3 (CVB3) [1], the Selectivity index was 175, the IC50 was determined as 1.14 µM and the EC (peak activity) stood at 3.13 µM. For the same molecule, in [2], the “% of eGFP + cells, 0 Hr” value was found to be 0.0%; the “% of eGFP + cells, 1 Hr” value is on record as 0.0%; the “% of eGFP + cells, 2 Hr” value worked out at 0.0%; the “Inhibition of infected cells” value was 100%.
In the case of `Cl.OC(c1cc(C(F)(F)F)nc2c(C(F)(F)F)cccc12)C1CCCCN1` (stereo not drawn) [Compound 22, [2,8-Bis (trifluoromethyl)-4-quinolinyl](2-piperidinyl)methanol hydrochloride (1:1), reference compound], in the series with CVB3-H3, the “Log10 reduction of virus titer” value turned out to be 4.0. Besides, in the series with coxsackievirus B3 (CVB3) [1], the Selectivity index is given as 6, the IC50 was found to be 1.6 µM and the EC (peak activity) amounted to 3.13 µM. Also, in series [2], the “% of eGFP + cells, 0 Hr” value amounted to 21.1%; the “% of eGFP + cells, 1 Hr” value is listed as 18.5%; the “% of eGFP + cells, 2 Hr” value was 27.9%; the “Inhibition of infected cells” value worked out at 100%.
With `C/C(=C\c1ccccc1)C1NC(N)=Nc2nc3ccccc3n21` (stereo not drawn) [Compound 68, 4-[(1E)-1-Phenyl-1-propen-2-yl)-1,4-dihydro[1,3,5] triazino[1,2-a]benzimidazol-2-amine], in the series with CVB3-H3, the “Log10 reduction of virus titer” value amounted to 3.7. In the series on coxsackievirus B3 (CVB3) [1], the Selectivity index came to 21, the IC50 is 1.21 µM and the EC (peak activity) amounted to 3.13 µM. In addition, in series [2], the “% of eGFP + cells, 0 Hr” value stood at 0.0%; the “% of eGFP + cells, 1 Hr” value worked out at 0.0%; the “% of eGFP + cells, 2 Hr” value is 0.0%; the “Inhibition of infected cells” value stood at 100%.
Take `NCCC(Oc1ccc(C(F)(F)F)cc1)c1ccccc1` (stereo not drawn) [Compound 74, 3-Phenyl-3-[4-(trifluoromethyl)phenoxy]-1-propanamine]: in series [4], the “viral capsid protein detected by immunoblot” value is listed as “no viral protein is detected”. Also, the “Log10 reduction of virus titer” value in the series with CVB3-H3 amounted to 4.7. Besides, in the series on coxsackievirus B3 (CVB3) [1], the Selectivity index was 10, the IC50 amounted to 2.53 µM and the EC (peak activity) was 6.25 µM. For the same molecule, in series [2], the “% of eGFP + cells, 0 Hr” value is listed as 0.0%; the “% of eGFP + cells, 1 Hr” value was determined as 0.0%; the “% of eGFP + cells, 2 Hr” value was 0.0%; the “Inhibition of infected cells” value was determined as 100%.
Consider `O=C(Nc1nc(CN2CCCC2)cs1)c1cc(-c2cccs2)nc2ccccc12` [Compound 33, N-[4-(1-Pyrrolidinylmethyl)-1,3-thiazol-2-yl)-2-(2-thienyl)-4-quinoline-carboxamide], for which the “Log10 reduction of virus titer” value with CVB3-H3 is on record as 4.5. Besides, in the series on coxsackievirus B3 (CVB3) [1], the Selectivity index was 44, the IC50 stood at 0.57 µM and the EC (peak activity) was determined as 3.13 µM. Further, in series [2], the “% of eGFP + cells, 0 Hr” value is reported as 0.0%; the “% of eGFP + cells, 1 Hr” value was 0.0%; the “% of eGFP + cells, 2 Hr” value is 0.0%; the “Inhibition of infected cells” value came to 100%.
Regarding `COc1ccc(N(Cc2ccc(F)cc2)C(=O)c2ccco2)cc1` [Compound 57, N-(4-Fluorobenzyl)-N-(4-methoxyphenyl)-2-furamide], the “Log10 reduction of virus titer” value in the series on CVB3-H3 was 4.3. Besides, in the series with coxsackievirus B3 (CVB3) [1], the Selectivity index is given as 16, the IC50 amounted to 3.13 µM and the EC (peak activity) stood at 6.25 µM. Further, in series [2], the “% of eGFP + cells, 0 Hr” value stood at 0.0%; the “% of eGFP + cells, 1 Hr” value is 0.0%; the “% of eGFP + cells, 2 Hr” value is given as 0.0%; the “Inhibition of infected cells” value is reported as 99.7%.
Regarding `CN1c2ccccc2C(=O)NC1c1cc2ccccc2nc1N1CCOCC1` (stereo not drawn) [Compound 23, 1-Methyl-2-[2-(4-morpholinyl)-3-quinolinyl]-2,3-dihydro-4(1H)-quinazolinone], the “Log10 reduction of virus titer” value in the series with CVB3-H3 was found to be 4.4. Besides, in the series with coxsackievirus B3 (CVB3) [1], the Selectivity index is 54, the IC50 came out at 0.92 µM and the EC (peak activity) came to 3.13 µM. Moreover, in [2], the “% of eGFP + cells, 0 Hr” value is 0.1%; the “% of eGFP + cells, 1 Hr” value was determined as 3.8%; the “% of eGFP + cells, 2 Hr” value amounted to 0.0%; the “Inhibition of infected cells” value came out at 100%.
